From the supplement of paper PMC10307832

Legend:
Assay in all cases: relative viability (nuclei count vs DMSO), 5 days (fraction); higher = more cells survive
Tozasertib + Luminespib = compound: Cc1cc(Nc2cc(N3CCN(C)CC3)nc(Sc3ccc(NC(=O)C4CC4)cc3)n2)n[nH]1 [Tozasertib] + CCNC(=O)c1noc(-c2cc(C(C)C)c(O)cc2O)c1-c1ccc(CN2CCOCC2)cc1 [Luminespib] (partner 0.01 µM)
Outline: (§1)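 Lung cancer cell lines in 1536-well plates were dosed by pin tool the day after seeding, either with one drug alone or with a fixed anchor-drug dose plus five library-drug doses (not always all listed) in √10 steps. After 5 days, cells were fixed and their nuclei stained in one step (final 0.05% Triton X-100, 1% formaldehyde, 1 ug/ml Hoechst), then counted on 4× images. Relative viability is the nuclei count in treated wells divided by that in vehicle wells. Values are medians of duplicate plates.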

Tozasertib + OSI-027 = compound: Cc1cc(Nc2cc(N3CCN(C)CC3)nc(Sc3ccc(NC(=O)C4CC4)cc3)n2)n[nH]1 [Tozasertib] + COc1cccc2cc(-c3nc([C@H]4CC[C@H](C(=O)O)CC4)n4ncnc(N)c34)[nH]c12 [OSI-027] (partner 0.5 µM)
Outline: as §1

Tozasertib + Pictilisib = compound: Cc1cc(Nc2cc(N3CCN(C)CC3)nc(Sc3ccc(NC(=O)C4CC4)cc3)n2)n[nH]1 [Tozasertib] + CS(=O)(=O)N1CCN(Cc2cc3nc(-c4cccc5[nH]ncc45)nc(N4CCOCC4)c3s2)CC1 [Pictilisib] (partner 1 µM)
Outline: as §1

Tozasertib + Dasatinib = compound: Cc1cc(Nc2cc(N3CCN(C)CC3)nc(Sc3ccc(NC(=O)C4CC4)cc3)n2)n[nH]1 [Tozasertib] + Cc1nc(Nc2ncc(C(=O)Nc3c(C)cccc3Cl)s2)cc(N2CCN(CCO)CC2)n1 [Dasatinib] (partner 0.075 µM)
Outline: as §1

Tozasertib + Phenformin = compound: Cc1cc(Nc2cc(N3CCN(C)CC3)nc(Sc3ccc(NC(=O)C4CC4)cc3)n2)n[nH]1 [Tozasertib] + N=C(N)NC(=N)NCCc1ccccc1 [Phenformin] (partner 250 µM)
Outline: as §1

Row | Cell Line | relative viability (Tozasertib + Luminespib; first compound 0.004 µM) | relative viability (Tozasertib + Luminespib; first compound 0.01265 µM) | relative viability (Tozasertib + Luminespib; first compound 0.1265 µM) | relative viability (Tozasertib + OSI-027; first compound 0.004 µM) | relative viability (Tozasertib + OSI-027; first compound 0.01265 µM) | relative viability (Tozasertib + OSI-027; first compound 0.04 µM) | relative viability (Tozasertib + OSI-027; first compound 0.1265 µM) | relative viability (Tozasertib + Pictilisib; first compound 0.004 µM) | relative viability (Tozasertib + Pictilisib; first compound 0.01265 µM) | relative viability (Tozasertib + Pictilisib; first compound 0.04 µM) | relative viability (Tozasertib + Pictilisib; first compound 0.1265 µM) | relative viability (Tozasertib + Dasatinib; first compound 0.004 µM) | relative viability (Tozasertib + Dasatinib; first compound 0.01265 µM) | relative viability (Tozasertib + Dasatinib; first compound 0.04 µM) | relative viability (Tozasertib + Dasatinib; first compound 0.1265 µM) | relative viability (Tozasertib + Phenformin; first compound 0.004 µM) | relative viability (Tozasertib + Phenformin; first compound 0.01265 µM) | relative viability (Tozasertib + Phenformin; first compound 0.04 µM) | relative viability (Tozasertib + Phenformin; first compound 0.1265 µM) | relative viability (Tozasertib + Luminespib; first compound 0.04 µM)
1 | 201T | 1.12 | 1.06 | 1.11 | 0.76 | 0.781 | 0.839 | 0.621 | 0.716 | 0.581 | 0.709 | 0.537 | 0.593 | 0.503 | 0.714 | 0.555 | 0.496 | 0.432 | 0.448 | 0.415 | 
2 | A549 |  |  |  |  |  |  |  | 0.529 | 0.463 | 0.517 | 0.0954 |  |  |  |  | 0.117 | 0.161 | 0.169 | 0.0581 | 
3 | A-427 | 0.983 | 0.857 | 0.481 | 0.457 | 0.478 | 0.48 | 0.332 | 0.676 | 0.585 | 0.814 | 0.168 | 0.774 | 0.692 | 0.76 | 0.426 | 0.332 | 0.31 | 0.328 | 0.169 | 0.97
4 | ABC-1 | 0.521 | 0.638 | 0.686 | 0.542 | 0.495 | 0.58 | 0.207 | 0.782 |  | 0.625 | 0.291 | 0.494 | 0.535 | 0.577 | 0.258 | 0.218 | 0.202 | 0.261 | 0.172 | 0.402
5 | BEN | 0.302 | 0.279 | 0.268 | 0.333 | 0.335 | 0.309 | 0.284 | 0.56 | 0.575 | 0.66 | 0.456 | 0.372 | 0.354 | 0.363 | 0.287 | 0.277 | 0.253 | 0.296 | 0.252 | 0.332
6 | CAL-12T | 0.288 | 0.405 | 0.368 | 0.954 | 0.562 | 0.719 | 0.214 | 0.472 | 0.386 | 0.414 | 0.171 | 0.434 | 0.332 | 0.404 | 0.151 | 0.669 | 0.499 | 0.529 | 0.272 | 0.58
7 | COR-L23 | 0.836 | 0.619 | 0.637 | 0.747 | 0.726 | 0.635 | 0.538 | 0.724 | 0.756 | 0.783 | 0.397 | 0.521 | 0.547 | 0.479 | 0.245 | 0.44 | 0.425 | 0.407 | 0.176 | 0.618
8 | COR-L 105 | 0.842 | 0.966 | 0.609 | 0.698 | 0.68 | 0.731 | 0.343 | 0.434 | 0.511 | 0.412 | 0.267 | 0.352 | 0.291 | 0.32 | 0.214 | 0.501 | 0.46 | 0.483 | 0.275 | 0.761
9 | ChaGo-K-1 | 0.643 | 0.672 | 0.45 | 0.584 | 0.511 | 0.562 | 0.31 | 0.849 | 0.676 | 0.771 | 0.256 | 0.624 | 0.616 | 0.648 | 0.398 | 0.528 | 0.456 | 0.562 | 0.289 | 0.623
10 | EKVX | 0.753 | 0.872 | 0.694 | 0.692 | 0.671 | 0.734 |  | 0.383 | 0.443 | 0.527 | 0.348 | 0.494 | 0.606 | 0.471 |  | 0.256 | 0.212 | 0.23 | 0.222 | 0.827
11 | EMC-BAC-2 | 1.15 | 1.11 | 0.827 | 0.381 | 0.389 | 0.381 | 0.262 | 0.547 | 0.541 | 0.654 | 0.395 | 0.314 | 0.321 | 0.342 | 0.259 | 0.486 | 0.513 | 0.518 | 0.357 | 1.3
12 | EPLC-272H | 0.267 | 0.307 | 0.288 | 0.289 | 0.256 | 0.288 | 0.265 | 0.442 | 0.31 | 0.326 |  | 0.313 | 0.399 | 0.39 | 0.291 | 0.307 | 0.337 | 0.256 | 0.275 | 0.197
13 | H3255 | 0.753 | 0.67 | 0.879 | 0.452 | 0.492 | 0.61 | 0.459 |  | 0.463 | 0.533 | 0.413 | 0.37 | 0.409 | 0.339 | 0.304 | 0.291 | 0.396 | 0.379 | 0.353 | 1.02
14 | HARA | 0.659 | 0.681 | 0.484 | 0.467 | 0.447 | 0.583 | 0.343 | 0.421 | 0.44 | 0.373 | 0.243 | 0.286 | 0.281 | 0.336 | 0.303 | 0.365 | 0.44 | 0.493 | 0.444 | 0.496
15 | HCC-15 | 0.296 | 0.282 | 0.238 | 0.745 | 0.64 | 0.665 | 0.419 | 0.702 | 0.653 | 0.802 | 0.585 | 0.61 | 0.532 | 0.624 | 0.319 | 0.504 | 0.477 | 0.5 | 0.341 | 0.306
16 | HCC-44 | 1.04 | 0.829 | 0.796 | 0.605 | 0.485 | 0.606 | 0.341 | 0.596 | 0.603 | 0.67 | 0.409 |  |  |  |  | 0.184 | 0.251 | 0.184 | 0.104 | 0.565
17 | HCC-78 |  |  |  | 0.387 | 0.357 | 0.363 | 0.361 | 0.235 | 0.203 | 0.202 | 0.171 | 0.541 | 0.316 | 0.469 | 0.322 | 0.957 | 0.608 | 0.699 | 0.525 | 
